Data on 10 compounds can be found in ChEMBL document CHEMBL1649363, “Nitropyrrolins A-E, cytotoxic farnesyl-α-nitropyrroles from a marine-derived bacterium within the actinomycete family Streptomycetaceae” (J Nat Prod, 2010).

What is called IC50 is the concentration needed to halve the response being measured. In general, MIC refers to the least concentration at which growth counts as inhibited.

For assay [1], the system named is HCT-116. Nature of the assay: Cytotoxicity against human HCT116 cells. The class given is functional, cell-based.
Assay [2] has as its system Staphylococcus aureus. The assay is described as follows: Antibacterial activity against methicillin-resistant Staphylococcus aureus. Type of assay: functional.
Setting [3] is: Homo sapiens, HCT-116, read-out: IC50.

In brackets after ≈: the same amount, converted by molar mass. Bounds are passed on as bounds.

As for `C/C(=C\CC[C@@](C)(Cl)[C@H](O)Cc1c[nH]c([N+](=O)[O-])c1)CC[C@@H](O)C(C)(C)O` [NITROPYRROLIN E], the IC50 entry in assay [1] (hct-116) is recorded as “Not Active”. This compound also gave an MIC in assay [2] of over 20 µg/mL.
Taken in the same sequence, the figures for `O=[N+]([O-])c1ccc[nH]1` were “Not Active” and over 20 µg/mL.
For the compound `CC(C)=CCC/C(C)=C/C/C=C(\C)[C@H](O)Cc1c[nH]c([N+](=O)[O-])c1` [NITROPYRROLIN D], in assay [1] (setting [3]), the IC50 was 5.7 µM. This compound also returned an MIC in assay [2] of over 20 µg/mL.
For `CC(C)=CCC/C(C)=C\CC/C(C)=C\Cc1ccc[nH]1` the same measures were 24.4 µM and over 20 µg/mL.
As to `CC(C)=CCC/C(C)=C/CC[C@@](C)(Cl)[C@H](O)Cc1c[nH]c([N+](=O)[O-])c1` [NITROPYRROLIN C], the IC50 result in assay [1] (hct-116) is “Not Active”. In addition, in assay [2], the MIC is over 20 µg/mL.
Consider `CC(C)=CCC/C(C)=C/CC[C@](C)(O)[C@H](O)Cc1c[nH]c([N+](=O)[O-])c1` [NITROPYRROLIN A], for which the IC50 in assay [1] (setting [3]) amounted to 31.1 µM. This compound also registered an MIC in assay [2] of over 20 µg/mL.
Taken in the same sequence, the figures for `CC(C)=CCC/C(C)=C/CC[C@@]1(C)O[C@@H]1Cc1c[nH]c([N+](=O)[O-])c1` [NITROPYRROLIN B] were 31 µM and over 20 µg/mL.
In the case of `CC(C)=CCC/C(C)=C\CC/C(C)=C\Cc1c[nH]c([N+](=O)[O-])c1`, in assay [1] (setting [3]), the 50% inhibitory concentration (IC50) came to 9.2 µM. In assay [2], this compound showed an MIC of over 20 µg/mL.
As to `O=[N+]([O-])c1cc[nH]c1`, in assay [1] (hct-116), the 50% inhibitory concentration (IC50) entry is “Not Active”. In assay [2], this compound had a minimal inhibitory concentration (MIC) of over 20 µg/mL.
As to `CC(C)=CCC/C(C)=C\CC/C(C)=C\Cc1cc[nH]c1`, the IC50 in assay [1] (setting [3]) came to 13.7 µM. The compound also displayed a minimal inhibitory concentration (MIC) in assay [2] of 2.8 µg/mL (≈ 10.3 µM).
